Converted amounts (≈) assume the structure as drawn. Where two headings read alike, the source gives them in different places.
Assays:
[1] = target: T1, E. coli DNA gyrase (Escherichia coli, UniProt P0AES4+P0AES6); assay: DNA gyrase inhibition (supercoiling kit), Exp. Ex. 2-2; assay type: biochemical
T1 construct: purchased John Innes Enterprises #K0001
Description: As a kit for measurement of DNA gyrase of Escherichia coli, a product purchased from John Innes Enterprises (Gyrase Supercoiling assay kit #K0001) was used. Relaxed DNA was modified with gyrase into supercoiled DNA, and reaction products were separated by electrophoresis depending on the sizes of the molecular weights to examine anti-gyrase effects (IC50). 1 unit (1 U) of DNA gyrase and […] of relaxed pBR322 DNA were added to […] of the reaction solution, and the mixture was allowed to react at 37° C. for 30 minutes in the presence of 35 mM Tris-HCl (pH 7.5), 24 mM KCl, 4 mM MgCl2, 2 mM DTT, 1.8 mM spermidine, 1 mM ATP, 6.5% (w/v) glycerol, and 0.1 mg/ml BSA. The reactions were stopped using […] of a reaction stop solution (40% sucrose, 100 mM Tris-HCl (pH 7.5), 1 mM EDTA, 0.5 mg/ml bromophenol blue).

[2] = test system: Vancomycin-resistant enterococci NCTC 12201; assay: In vitro infectivity assay (MIC), Exp. Ex. 2-1; assay type: cell-based; details: Gram-positive, microdilution, MIC after 24 h
Description: (§1) The antibacterial activities were measured based on broth dilution techniques of international standards (Clinical Laboratory Standards Institute: CLSI). The activities were shown by minimum inhibitory concentrations (MICs) determined by inoculating the above-mentioned strains at a concentration of about 10^5 […] into Mueller-Hinton broth (manufactured by Difco) containing 0.85% NaCl in 96-well microplates and incubating the plates at 35° C. for 24 hours. Measurement was carried out three times.
(§2) The antibacterial activities of the compounds of the present invention against various strains such as vancomycin-resistant enterococci (VRE), vancomycin intermediate-resistant Staphylococcus aureus (VISA), methicillin-resistant Staphylococcus aureus (MRSA), and methicillin-sensitive Staphylococcus aureus (MSSA) were examined. Of the bacteria used in MIC measurement in this test example, clinical bacteria of MRSA (OM481 strain and OM584 strain) were supplied from Okayama University Hospital (Japan). An MRSA strain N315, a vancomycin intermediate-resistant Staphylococcus aureus (VISA) strain Mu50, and a methicillin-sensitive Staphylococcus aureus (MSSA) strain FDA 209P were used as controls. Vancomycin-resistant enterococcus (VRE) strains NCTC 12201 and FN-1 were supplied from the National Institute of Infectious Disease (Japan).

[3] = test system: Vancomycin intermediate-resistant Staphylococcus aureus Mu50; assay: In vitro infectivity assay (MIC), Exp. Ex. 2-1; assay type: cell-based; details: Gram-positive, microdilution, MIC after 24 h
Description: as §1, §2

[4] = test system: Vancomycin-resistant enterococci FN-1; assay: In vitro infectivity assay (MIC), Exp. Ex. 2-1; assay type: cell-based; details: Gram-positive, microdilution, MIC after 24 h
Description: as §1, §2

[5] = test system: Streptococcus pneumoniae R6; assay: In vitro infectivity assay (MIC), Exp. Ex. 2-1; assay type: cell-based; details: Gram-positive, microdilution, MIC after 24 h
[6] = test system: Methicillin sensitive S. aureus 209P; assay: In vitro infectivity assay (MIC), Exp. Ex. 2-1; assay type: cell-based, Staphylococcus aureus; details: Gram-positive, microdilution, MIC after 24 h
Description: as §1, §2

[7] = test system: Methicillin-resistant S. aureus OM584; assay: In vitro infectivity assay (MIC), Exp. Ex. 2-1; assay type: cell-based, Staphylococcus aureus; details: Gram-positive, microdilution, MIC after 24 h
Description: as §1, §2

[8] = test system: Methicillin-resistant S. aureus OM481; assay: In vitro infectivity assay (MIC), Exp. Ex. 2-1; assay type: cell-based, Staphylococcus aureus; details: Gram-positive, microdilution, MIC after 24 h
Description: as §1, §2

[9] = test system: Methicillin-resistant S. aureus N315; assay: In vitro infectivity assay (MIC), Exp. Ex. 2-1; assay type: cell-based, Staphylococcus aureus; details: Gram-positive, microdilution, MIC after 24 h
Description: as §1, §2

[10] = test system: Methicillin-resistant S. aureus COL; assay: In vitro infectivity assay (MIC), Exp. Ex. 2-1; assay type: cell-based, Staphylococcus aureus; details: Gram-positive, microdilution, MIC after 24 h
Description: as §1, §2

[11] = test system: Escherichia coli K-12; assay: Antibacterial activity (MIC) against Gram-negative strains, microdilution; assay type: cell-based; details: for MIC (Gram-nagative) K-12: MIC after 24 h
Description: as §1

[12] = test system: Pseodomonas aeruginosa PAOI; assay: as above; assay type: cell-based; details: MIC after 24 h
Description: as §1

[13] = target: T2, Staphylococcus aureus Topoisomerase IV (Staphylococcus aureus, UniProt P0C1S7+P0C1U9); assay: Topoisomerase IV inhibition (decatenation kit), Exp. Ex. 2-3; assay type: biochemical
T2 construct: purchased John Innes Enterprises
Description: (§3) Staphylococcus aureus Topoisomerase IV and Escherichia coli Topoisomerase IV were purchased from John Innes Enterprises. 1 unit of topoisomerase IV was cultured with 200 ng of kinetoplast DNA (kDNA) in 30 L of a reaction solution at 37° C. for 30 minutes under the conditions of 50 mM Tris-HCl (pH 7.5) (S. aureus)/50 mM HEPES-KOH (pH 7.6) (E. coli), 5 mM MgCl2 (S. aureus)/5 mM magnesium acetate (E. coli), 350 mM potassium glutamate (S. aureus)/100 mM potassium glutamate (E. coli), 5 mM dithiotheri (S. aureus)/10 mM dithiotheri (E. coli), 1.5 mM ATP (S. aureus)/1 mM ATP (E. coli), and 40% (w/v) glycerol. The reactions were stopped by adding 8 L of a reaction stop solution (40% sucrose, 100 mM Tris.HCl (pH 7.5), 1 mM EDTA, 0.5 mg/ml bromophenol blue). Agarose gel (1.0%) was poured into TAE (40 mM Tris acetate, 2 mM EDTA).

[14] = target: T3, Escherichia coli Topoisomerase IV (Escherichia coli, UniProt P0AFI2+P20083); assay: as above; assay type: biochemical; details: decatenation of kDNA, 37° C., 30 minutes; read-out: IC50 (E. coli topoisomerase IV inhibitions)
T3 construct: purchased John Innes Enterprises
Description: as §3

[15] = supercoiling activity, 37° C., 30 minutes, read-out: IC50 (E. coli DNA gyrase inhibitions)
[16] = decatenation of kDNA, 37° C., 30 minutes, read-out: IC50 (S. aureus topoisomerase IV inhibitions)

T2 sequence (P0C1U9 whole entry): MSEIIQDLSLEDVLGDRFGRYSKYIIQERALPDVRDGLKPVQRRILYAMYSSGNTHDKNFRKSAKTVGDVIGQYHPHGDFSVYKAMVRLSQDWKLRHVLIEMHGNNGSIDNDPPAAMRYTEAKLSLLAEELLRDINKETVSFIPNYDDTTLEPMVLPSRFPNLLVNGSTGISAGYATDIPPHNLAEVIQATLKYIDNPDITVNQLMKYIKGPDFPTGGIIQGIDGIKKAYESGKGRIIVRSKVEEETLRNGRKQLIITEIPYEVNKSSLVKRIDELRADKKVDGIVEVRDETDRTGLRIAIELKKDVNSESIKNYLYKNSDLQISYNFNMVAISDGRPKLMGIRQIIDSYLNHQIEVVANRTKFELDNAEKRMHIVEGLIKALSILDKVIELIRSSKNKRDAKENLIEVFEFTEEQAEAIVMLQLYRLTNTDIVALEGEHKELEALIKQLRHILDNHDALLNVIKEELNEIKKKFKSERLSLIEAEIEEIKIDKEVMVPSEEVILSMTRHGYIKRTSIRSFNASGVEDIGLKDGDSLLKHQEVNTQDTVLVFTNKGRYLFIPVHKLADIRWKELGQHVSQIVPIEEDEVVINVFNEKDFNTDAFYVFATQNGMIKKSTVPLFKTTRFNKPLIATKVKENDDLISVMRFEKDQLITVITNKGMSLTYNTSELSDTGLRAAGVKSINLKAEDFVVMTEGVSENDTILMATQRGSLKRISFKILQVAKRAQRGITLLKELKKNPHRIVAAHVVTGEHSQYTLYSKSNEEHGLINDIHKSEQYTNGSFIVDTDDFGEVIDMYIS
T2 sequence (P0C1S7 whole entry): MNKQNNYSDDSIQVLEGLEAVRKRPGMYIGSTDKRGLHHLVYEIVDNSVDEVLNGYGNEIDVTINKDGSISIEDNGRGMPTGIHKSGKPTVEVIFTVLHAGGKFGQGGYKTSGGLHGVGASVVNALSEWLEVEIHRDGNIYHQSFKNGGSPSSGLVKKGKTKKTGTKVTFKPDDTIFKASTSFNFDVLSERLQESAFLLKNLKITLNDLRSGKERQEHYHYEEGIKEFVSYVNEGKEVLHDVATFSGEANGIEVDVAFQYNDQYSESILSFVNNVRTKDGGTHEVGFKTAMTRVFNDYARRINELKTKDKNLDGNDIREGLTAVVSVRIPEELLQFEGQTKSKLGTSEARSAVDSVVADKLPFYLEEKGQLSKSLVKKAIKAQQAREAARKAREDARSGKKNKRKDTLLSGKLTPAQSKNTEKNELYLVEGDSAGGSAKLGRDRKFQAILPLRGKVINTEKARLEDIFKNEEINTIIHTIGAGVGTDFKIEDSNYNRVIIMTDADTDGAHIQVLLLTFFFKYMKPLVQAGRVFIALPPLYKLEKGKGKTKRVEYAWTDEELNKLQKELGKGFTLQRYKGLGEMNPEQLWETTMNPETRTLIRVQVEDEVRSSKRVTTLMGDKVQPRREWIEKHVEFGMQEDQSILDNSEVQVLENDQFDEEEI
T1 sequence (P0AES4 whole entry, one chain of several): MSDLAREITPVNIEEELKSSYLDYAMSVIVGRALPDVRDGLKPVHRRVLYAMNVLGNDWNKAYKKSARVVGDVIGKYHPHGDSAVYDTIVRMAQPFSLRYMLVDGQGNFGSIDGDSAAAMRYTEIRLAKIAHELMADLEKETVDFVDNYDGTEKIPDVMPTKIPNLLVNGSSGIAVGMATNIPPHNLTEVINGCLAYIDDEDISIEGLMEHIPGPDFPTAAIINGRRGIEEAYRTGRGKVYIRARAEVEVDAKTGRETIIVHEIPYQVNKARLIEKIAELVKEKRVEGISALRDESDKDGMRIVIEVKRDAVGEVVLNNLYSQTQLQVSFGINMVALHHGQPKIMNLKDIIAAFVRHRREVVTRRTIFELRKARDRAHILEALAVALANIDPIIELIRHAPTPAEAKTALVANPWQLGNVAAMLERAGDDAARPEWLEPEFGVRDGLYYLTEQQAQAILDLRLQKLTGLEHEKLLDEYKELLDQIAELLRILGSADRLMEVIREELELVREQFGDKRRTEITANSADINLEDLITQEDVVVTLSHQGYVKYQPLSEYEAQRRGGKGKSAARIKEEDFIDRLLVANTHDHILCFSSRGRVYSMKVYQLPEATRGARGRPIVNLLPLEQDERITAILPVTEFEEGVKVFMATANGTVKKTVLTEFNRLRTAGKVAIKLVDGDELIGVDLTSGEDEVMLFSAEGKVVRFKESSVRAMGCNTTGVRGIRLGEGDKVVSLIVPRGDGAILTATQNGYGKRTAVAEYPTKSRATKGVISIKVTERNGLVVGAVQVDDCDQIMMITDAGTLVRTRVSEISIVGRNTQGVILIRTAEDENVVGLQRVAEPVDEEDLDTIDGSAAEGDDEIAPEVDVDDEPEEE
T3 sequence (P20083 whole entry): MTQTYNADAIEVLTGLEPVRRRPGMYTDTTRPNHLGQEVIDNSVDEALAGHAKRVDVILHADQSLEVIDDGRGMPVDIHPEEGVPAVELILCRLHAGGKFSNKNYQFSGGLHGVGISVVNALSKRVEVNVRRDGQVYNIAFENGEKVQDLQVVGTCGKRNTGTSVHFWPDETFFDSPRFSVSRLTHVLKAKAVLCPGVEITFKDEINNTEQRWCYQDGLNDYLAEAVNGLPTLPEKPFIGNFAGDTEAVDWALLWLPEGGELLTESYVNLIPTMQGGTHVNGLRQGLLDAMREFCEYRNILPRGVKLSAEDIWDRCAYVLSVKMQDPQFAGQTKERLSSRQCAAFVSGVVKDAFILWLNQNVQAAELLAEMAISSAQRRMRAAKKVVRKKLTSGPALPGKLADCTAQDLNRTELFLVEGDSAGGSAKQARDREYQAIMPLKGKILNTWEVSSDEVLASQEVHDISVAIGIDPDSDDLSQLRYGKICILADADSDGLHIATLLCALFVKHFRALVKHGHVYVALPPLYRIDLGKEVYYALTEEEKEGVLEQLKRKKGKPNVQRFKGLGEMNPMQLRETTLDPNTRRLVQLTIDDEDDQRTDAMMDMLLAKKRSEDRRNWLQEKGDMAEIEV
T3 sequence (P0AFI2 whole entry): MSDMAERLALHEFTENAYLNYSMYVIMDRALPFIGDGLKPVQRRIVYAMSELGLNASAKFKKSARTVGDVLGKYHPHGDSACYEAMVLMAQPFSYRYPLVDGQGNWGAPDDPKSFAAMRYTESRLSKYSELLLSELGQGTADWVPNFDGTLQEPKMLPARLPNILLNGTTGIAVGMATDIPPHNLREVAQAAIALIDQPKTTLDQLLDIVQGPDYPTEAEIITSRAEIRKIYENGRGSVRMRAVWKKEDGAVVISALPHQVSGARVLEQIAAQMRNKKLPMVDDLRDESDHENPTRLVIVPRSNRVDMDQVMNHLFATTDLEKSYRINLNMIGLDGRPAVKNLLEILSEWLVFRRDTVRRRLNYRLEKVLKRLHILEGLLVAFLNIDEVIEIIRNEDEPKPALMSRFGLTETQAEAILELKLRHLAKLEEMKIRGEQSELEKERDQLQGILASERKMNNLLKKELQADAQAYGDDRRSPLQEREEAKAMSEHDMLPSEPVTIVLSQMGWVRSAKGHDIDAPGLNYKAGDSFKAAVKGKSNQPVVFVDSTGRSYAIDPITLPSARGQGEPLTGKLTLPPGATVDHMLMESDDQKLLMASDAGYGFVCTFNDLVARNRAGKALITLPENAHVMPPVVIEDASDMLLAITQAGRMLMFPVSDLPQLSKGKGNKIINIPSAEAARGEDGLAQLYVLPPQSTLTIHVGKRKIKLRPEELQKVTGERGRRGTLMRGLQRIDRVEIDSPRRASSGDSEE

SMILES | IC50 [1, 15] [nM] | MIC VRE NCTC 12201 [2] [µg/mL] | MIC VISA Mu50 [3] [µg/mL] | MIC VRE FN-1 [4] [µg/mL] | MIC S. Pneumoniae R6 [5] [µg/mL] | MIC MSSA 209P [6] [µg/mL] | MIC MRSA OM584 [7] [µg/mL] | MIC MRSA OM481 [8] [µg/mL] | MIC MRSA N315 [9] [µg/mL] | MIC MRSA COL [10] [µg/mL] | MIC (Gram-nagative) K-12 [11] [µg/mL] | MIC (Gram-nagative) PAO1 [12] [µg/mL] | IC50 [13, 16] [nM] | IC50 [14] [µM] | further results
Cc1ccc(CCC(=O)OC[C@H]2O[C@@H](Oc3c(-c4ccc(O)c(O)c4)oc4cc(O)cc(O)c4c3=O)[C@H](OC(=O)CCc3ccc(C)cc3)[C@@H](O)[C@H]2O)cc1 [Compound 14h, 2-(3′,4′-Dihydroxyphenyl)-5,7-dihydroxy-3-β-D-{2″,6″-di-O-[3′″-(4-methylphenylpropanoyl)]}galactosyl-4H-chromen-4-one] | 2090 | 0.5 (≈ 0.661 µM) | 0.5 (≈ 0.661 µM) | 0.5 (≈ 0.661 µM) | 0.25 (≈ 0.33 µM) | 0.25 (≈ 0.33 µM) | 0.25 (≈ 0.33 µM) | 0.25 (≈ 0.33 µM) | 0.25 (≈ 0.33 µM) | 1 (≈ 1.32 µM) | >128 | >128 | 1490 | 7.46 | 
Cc1ccc(CCC(=O)OCC2OC(Oc3c(-c4ccc(O)c(O)c4)oc4cc(O)cc(O)c4c3=O)C(OC(=O)CCc3ccc(C)cc3)C(O)C2O)cc1 [Compound 14l, 2-(3′,4′-Dihydroxyphenyl)-5,7-dihydroxy-3-β-D-{2″,6″-di-O-[3′″-(4-methylphenylpropanoyl)]}galactosyl-4H-chromen-4-one] |  |  |  |  |  |  |  |  |  |  |  |  |  | 7.99 | IC50 [1]: 1790 nM; MIC ([2]; Enterococcus, NCTC 12201 / VRE, read-out: MIC VRE NCTC 12201): 32 µg/mL (≈ 42.3 µM); MIC ([3]; Staphylococcus aureus, VISA, read-out: MIC VISA Mu50): 16 µg/mL (≈ 21.1 µM); MIC ([4]; Enterococcus, VRE, read-out: MIC VRE FN-1): 32 µg/mL (≈ 42.3 µM); MIC ([5]; Streptococcus pneumoniae, R6, read-out: MIC S. Pneumoniae R6): 32 µg/mL (≈ 42.3 µM); MIC ([6]; Staphylococcus aureus, 209P / MSSA, read-out: MIC MSSA 209P): 16 µg/mL (≈ 21.1 µM); MIC ([7]; Staphylococcus aureus, MRSA, read-out: MIC MRSA OM584): 16 µg/mL (≈ 21.1 µM); MIC ([8]; Staphylococcus aureus, MRSA, read-out: MIC MRSA OM481): 16 µg/mL (≈ 21.1 µM); MIC ([9]; Staphylococcus aureus, MRSA, read-out: MIC MRSA N315): 16 µg/mL (≈ 21.1 µM); MIC ([10]; Staphylococcus aureus, MRSA): 32 µg/mL (≈ 42.3 µM); MIC ([11]; K12, MIC after 24 h, read-out: MIC (Gram-nagative) K-12): > 128 µg/mL; MIC ([12]; read-out: MIC (Gram-nagative) PAO1): > 128 µg/mL; IC50 [13]: 2570 nM
O=C(CCc1ccc(F)cc1)OC[C@H]1O[C@@H](Oc2c(-c3ccc(O)c(O)c3)oc3cc(O)cc(O)c3c2=O)[C@H](OC(=O)CCc2ccc(F)cc2)[C@@H](O)[C@H]1O [Compound 14i, 2-(3′,4′-Dihydroxyphenyl)-5,7-dihydroxy-3-β-D-{2″,6″-di-O-[3′″-(4-fluorophenylpropanoyl)]}galactosyl-4H-chromen-4-one] | 780 | 0.25 (≈ 0.327 µM) | 0.5 (≈ 0.654 µM) | 0.25 (≈ 0.327 µM) | 0.13 (≈ 0.17 µM) | 0.13 (≈ 0.17 µM) | 0.13 (≈ 0.17 µM) | 0.13 (≈ 0.17 µM) | 0.13 (≈ 0.17 µM) | 0.5 (≈ 0.654 µM) | >128 | >128 | 220 | 7.16 | 
O=C(Cc1ccc(F)cc1)OC[C@H]1O[C@@H](Oc2c(-c3ccc(O)c(O)c3)oc3cc(O)cc(O)c3c2=O)[C@H](OC(=O)Cc2ccc(F)cc2)[C@@H](O)[C@H]1O [Compound 14e, 2-(3′,4′-Dihydroxyphenyl)-5,7-dihydroxy-3-β-D-[2″,6″-di-O-(4-fluorophenylacetyl)]galactosyl-4H-chromen-4-one] | 1050 | 0.5 (≈ 0.679 µM) | 1 (≈ 1.36 µM) | 0.5 (≈ 0.679 µM) | 0.5 (≈ 0.679 µM) | 1 (≈ 1.36 µM) | 1 (≈ 1.36 µM) | 1 (≈ 1.36 µM) | 1 (≈ 1.36 µM) | 8 (≈ 10.9 µM) | >128 | >128 | 460 | 7.21 | 
CCOc1ccc(CCC(=O)OC[C@H]2O[C@@H](Oc3c(-c4ccc(O)c(O)c4)oc4cc(O)cc(O)c4c3=O)[C@H](OC(=O)CCc3ccc(OCC)cc3)[C@@H](O)[C@H]2O)cc1 [Compound 14g, 2-(3′,4′-Dihydroxyphenyl)-5,7-dihydroxy-3-β-D-{2″,6″-di-O-[3′″-(4-ethoxyphenylpropanoyl)]}galactosyl-4H-chromen-4-one] | 5390 | 2 (≈ 2.45 µM) | 1 (≈ 1.22 µM) | 2 (≈ 2.45 µM) | 8 (≈ 9.79 µM) | 2 (≈ 2.45 µM) | 1 (≈ 1.22 µM) | 1 (≈ 1.22 µM) | 2 (≈ 2.45 µM) | 4 (≈ 4.9 µM) | >128 | >128 | 2990 | > 12 | 
